Converted amounts (≈) assume the structure as drawn. Each block holds one compound with its values, some of them ahead of it.
Experiments:
Experiment in all cases: ≥ marks a high value that may be exact or a test limit, other limits are often not marked, values filed in µg/mL are converted to µM
[1] = tested on: Pseudomonas aeruginosa KCTC 1637
[2] = tested on: Escherichia coli KCTC 1682
[3] = tested on: Bacillus megaterium KCTC 1096
[4] = tested on: Bacillus subtilis KCTC 1918
[5] = tested on: Proteus vulgaris
[6] = tested on: Staphylococcus aureus KCTC 1621
[7] = tested on: Klebsiella pneumoniae NCTC 13368
[8] = tested on: Staphylococcus aureus NCTC 10788
[9] = tested on: Staphylococcus aureus ATCC 9144
[10] = tested on: Candida albicans NCPF 1467
[11] = tested on: Escherichia coli NCTC 10418
[12] = tested on: Pseudomonas aeruginosa PAO1
[13] = tested on: Escherichia coli NCTC 12923
[14] = tested on: Staphylococcus aureus USA 300
[15] = tested on: Acinetobacter baumannii ATCC 17978
[16] = tested on: Escherichia coli ATCC 25922
[17] = tested on: Pseudomonas aeruginosa ATCC 27853
[18] = tested on: Klebsiella pneumoniae ATCC 10031
[19] = tested on: Micrococcus luteus ATCC 10240
[20] = tested on: Staphylococcus epidermidis ATCC 12228
[21] = tested on: Bacillus subtilis ATCC 6633
[22] = tested on: Staphylococcus aureus ATCC 6538P
[23] = tested on: Shigella dysenteriae ATCC 9752
[24] = tested on: Salmonella enterica subsp. enterica serovar Typhimurium ATCC 14028
[25] = tested on: Batrachochytrium dendrobatidis JEL-197
[26] = tested on: Escherichia coli ATCC 25726
[27] = tested on: Candida albicans ATCC 90028
[28] = tested on: Staphylococcus aureus ATCC 25923
[29] = tested on: Bacillus subtilis IFO 3513
[30] = tested on: Staphylococcus aureus IFO 12732
[31] = tested on: Escherichia coli IFO 12734

- MIC [29]: 1.71 µM (≈ 3.13 µg/mL)
- MIC [30]: 0.851 µM (≈ 1.56 µg/mL)
- MIC [31]: 6.81 µM (≈ 12.5 µg/mL)
SMILES: CC[C@H](C)[C@H](N)C(=O)N[C@@H](CC(C)C)C(=O)N1CCC[C@H]1C(=O)N[C@@H](Cc1c[nH]c2ccccc12)C(=O)N[C@@H](CCCCN)C(=O)N[C@@H](Cc1c[nH]c2ccccc12)C(=O)N1CCC[C@H]1C(=O)N[C@@H](CC(C)C)C(=O)N[C@@H](Cc1c[nH]c2ccccc12)C(=O)N1CCC[C@H]1C(=O)N[C@@H](Cc1c[nH]c2ccccc12)C(=O)N[C@@H](CCCN=C(N)N)C(=O)N[C@@H](CCCN=C(N)N)C(N)=O [ILPWKWPLWPWRR]

- MIC [29]: 1.76 µM (≈ 3.13 µg/mL)
- MIC [30]: 3.52 µM (≈ 6.25 µg/mL)
- MIC [31]: 28.2 µM (≈ 50 µg/mL)
SMILES: CC[C@H](C)[C@H](N)C(=O)N[C@@H](CC(C)C)C(=O)N1CCC[C@H]1C(=O)N[C@@H](Cc1c[nH]c2ccccc12)C(=O)N[C@@H](CCCCN)C(=O)N[C@@H](Cc1c[nH]c2ccccc12)C(=O)N1CCC[C@H]1C(=O)N[C@@H](Cc1c[nH]c2ccccc12)C(=O)N[C@@H](CC(C)C)C(=O)N1CCC[C@H]1C(=O)N[C@@H](CCCCN)C(=O)N[C@@H](CCCN=C(N)N)C(=O)N[C@@H](CCCN=C(N)N)C(N)=O [ILPWKWPWLPKRR]

- MIC [29]: 1.71 µM (≈ 3.13 µg/mL)
- MIC [30]: 1.71 µM (≈ 3.13 µg/mL)
- MIC [31]: 13.6 µM (≈ 25 µg/mL)
SMILES: CC[C@H](C)[C@H](N)C(=O)N[C@@H](CC(C)C)C(=O)N1CCC[C@H]1C(=O)N[C@@H](Cc1c[nH]c2ccccc12)C(=O)N[C@@H](CCCCN)C(=O)N[C@@H](Cc1c[nH]c2ccccc12)C(=O)N1CCC[C@H]1C(=O)N[C@@H](Cc1c[nH]c2ccccc12)C(=O)N[C@@H](Cc1c[nH]c2ccccc12)C(=O)N1CCC[C@H]1C(=O)N[C@@H](CC(C)C)C(=O)N[C@@H](CCCN=C(N)N)C(=O)N[C@@H](CCCN=C(N)N)C(N)=O [ILPWKWPWWPLRR]

Continued, compound first:

SMILES: CC[C@H](C)[C@H](NC(=O)[C@H](CCCCN)NC(=O)[C@H](CCCCN)NC(=O)[C@H](Cc1ccccc1)NC(=O)[C@H](CC(C)C)NC(=O)[C@H](CCCCN)NC(=O)[C@@H](N)Cc1ccccc1)C(=O)N1CCC[C@H]1C(=O)N[C@@H](CCCCN)C(=O)N[C@@H](Cc1ccccc1)C(=O)N[C@@H](CC(C)C)C(=O)N[C@@H](Cc1cnc[nH]1)C(=O)N[C@@H](CC(C)C)C(=O)N[C@@H](C)C(=O)N[C@@H](CCCCN)C(=O)N[C@@H](CCCCN)C(=O)N[C@@H](Cc1ccccc1)C(N)=O [FKLFKKIPKFLHLAKKF]
- MIC [1]: 1.56 µM (≈ 3.33 µg/mL)
- MIC [2]: 6.26 µM (≈ 13.4 µg/mL)
- MIC [3]: 0.78 µM (≈ 1.66 µg/mL)
- MIC [4]: 0.78 µM (≈ 1.66 µg/mL)
- MIC [5]: 1.56 µM (≈ 3.33 µg/mL)
- MIC [6]: 3.12 µM (≈ 6.66 µg/mL)

SMILES: CC[C@H](C)[C@H](NC(=O)[C@H](C)NC(=O)[C@H](CCCCN)NC(=O)[C@@H]1CCCN1C(=O)[C@@H](NC(=O)[C@H](CC(C)C)NC(=O)[C@H](CO)NC(=O)[C@H](Cc1ccccc1)NC(=O)[C@H](CC(C)C)NC(=O)[C@@H](N)Cc1ccccc1)[C@@H](C)CC)C(=O)NCC(=O)NCC(=O)N[C@@H](CC(C)C)C(=O)N[C@H](C(=O)N[C@@H](CO)C(=O)N[C@@H](C)C(=O)N[C@@H](Cc1ccccc1)C(=O)N[C@@H](CCCCN)C(N)=O)[C@@H](C)CC [FLFSLIPKAIGGLISAFK]
- MIC [7]: ≥ 33.3 µM
- MIC [8]: 3 µM (≈ 5.76 µg/mL)
- MIC [9]: 2.08 µM (≈ 4 µg/mL)
- MIC [10]: 5 µM (≈ 9.61 µg/mL)
- MIC [11]: 5 µM (≈ 9.61 µg/mL)
- MIC [12]: > 66.6 µM
- MIC [13]: 8.32 µM (≈ 16 µg/mL)
- MIC [14]: 4.16 µM (≈ 8 µg/mL)
- MIC [15]: 4.16 µM (≈ 8 µg/mL)

SMILES: CC(C)C[C@H](NC(=O)[C@H](Cc1c[nH]c2ccccc12)NC(=O)CNC(=O)[C@H](CC(C)C)NC(=O)[C@@H](N)Cc1ccccc1)C(=O)N[C@@H](Cc1ccccc1)C(=O)N[C@@H](CCCCN)C(=O)N[C@@H](Cc1c[nH]c2ccccc12)C(=O)N[C@@H](C)C(=O)N[C@@H](CO)C(=O)N[C@@H](CCCCN)C(N)=O [FLGWLFKWASK]
- MIC [16]: 36.2 µM (≈ 50 µg/mL)
- MIC [17]: 145 µM (≈ 200 µg/mL)
- MIC [18]: ≥ 36.2 µM
- MIC [19]: 9.04 µM (≈ 12.5 µg/mL)
- MIC [20]: 36.2 µM (≈ 50 µg/mL)
- MIC [21]: 18.1 µM (≈ 25 µg/mL)
- MIC [22]: 18.1 µM (≈ 25 µg/mL)
- MIC [23]: 18.1 µM (≈ 25 µg/mL)
- MIC [24]: 145 µM (≈ 200 µg/mL)

SMILES: CC[C@H](C)[C@@H]1NC(=O)[C@H](C)NC(=O)[C@@H](NC(=O)[C@H](Cc2ccccc2)NC(=O)[C@@H](NC(=O)[C@H](CCCCN)NC(=O)[C@@H]2CCCN2C(=O)[C@H](CC(C)C)NC(=O)[C@H](Cc2ccccc2)NC(=O)[C@H](CCC(N)=O)NC(=O)CNC(=O)[C@H](C)NC(=O)[C@H](C)NC(=O)CNC(=O)[C@@H](NC(=O)[C@@H](NC(=O)[C@H](C)NC(=O)[C@@H]2CCCN2C(=O)[C@H](CC(C)C)NC(=O)[C@@H](N)Cc2ccccc2)[C@@H](C)CC)C(C)C)[C@@H](C)CC)CSSC[C@@H](C(=O)O)NC(=O)[C@H](CCCCN)NC(=O)[C@H](CCCCN)NC(=O)[C@H](CO)NC1=O [FLPAIVGAAGQFLPKIFCAISKKC]
- MIC [16]: 55 µM (≈ 139 µg/mL)
- MIC [25]: ≥ 40 µM

SMILES: CC[C@H](C)[C@H](NC(=O)CN)C(=O)N[C@@H](CCSC)C(=O)N[C@@H](CC(N)=O)C(=O)N[C@H](C(=O)N[C@H](C(=O)N[C@@H](CCCCN)C(=O)N[C@@H](CC(=O)O)C(=O)N[C@H](C(=O)N[C@@H](C)C(=O)N[C@H](C(=O)NCC(=O)N[C@H](C(=O)N[C@@H](C)C(=O)N[C@H](C(=O)N[C@@H](Cc1cnc[nH]1)C(=O)N[C@@H](CC(C)C)C(=O)N[C@@H](CC(C)C)C(=O)N[C@@H](CC(N)=O)C(=O)N[C@@H](CCSC)C(=O)N[C@H](C(=O)N[C@@H](CCCCN)C(=O)N[C@H]1CSSC[C@@H](C(=O)O)NC(=O)CNC(=O)[C@H]([C@@H](C)O)NC(=O)[C@H]([C@@H](C)CC)NC(=O)[C@H](CCCCN)NC1=O)C(C)C)[C@@H](C)O)C(C)C)[C@@H](C)O)C(C)C)C(C)C)[C@@H](C)O [GIMNTVKDVATGVATHLLNMVKCKITGC]
- MIC [25]: ≥ 100 µM
- MIC [26]: ≥ 50 µM
- MIC [27]: ≥ 100 µM
- MIC [28]: > 50 µM

SMILES: CC(=O)N[C@@H](CCCCN)C(=O)N[C@@H](C)C(=O)N[C@@H](C)C(=O)N[C@@H](CCCCN)C(=O)N[C@@H](C)C(=O)N[C@@H](C)C(=O)N[C@@H](CCCCN)C(=O)N[C@@H](CCCCN)C(=O)N[C@@H](C)C(=O)N[C@@H](C)C(=O)N[C@@H](CCCCN)C(=O)N[C@@H](C)C(=O)N[C@@H](C)C(=O)N[C@@H](Cc1c[nH]c2ccccc12)C(=O)N[C@@H](CCCCN)C(N)=O [KAAKAAKKAAKAAWK]
- MIC [16]: 130 µM (≈ 205 µg/mL)
- MIC [17]: 130 µM (≈ 205 µg/mL)
- MIC [18]: ≥ 130 µM
- MIC [20]: 130 µM (≈ 205 µg/mL)
- MIC [21]: ≥ 130 µM
- MIC [22]: ≥ 130 µM
- MIC [23]: ≥ 130 µM
- MIC [24]: 130 µM (≈ 205 µg/mL)

SMILES: CC[C@H](C)[C@H](NC(=O)[C@H](CCCCN)NC(=O)CNC(=O)[C@H](Cc1ccccc1)NC(=O)[C@H](CC(C)C)NC(=O)[C@@H](N)CC(C)C)C(=O)N[C@H](C(=O)N[C@@H](CO)C(=O)N[C@@H](CCCN=C(N)N)C(=O)N[C@@H](CC(C)C)C(=O)N[C@@H](CC(C)C)C(=O)NCC(=O)N[C@@H](CC(N)=O)C(=O)O)[C@@H](C)CC [LLFGKIISRLLGN]
- MIC [25]: ≥ 250 µM
